Measured values from US20070059773A1, “Identification of therapeutic compounds” (priority 2003, published 2007).
Converted amounts (≈) assume the structure as drawn. Where two headings read alike, the source gives them in different places.

What was measured:
[1] = target: T1, rat cortex A1 receptor (Rattus norvegicus, UniProt P25099); assay: Displacement of 3H-DPCPX from the rat cortex A1 receptor; type: binding
T1 construct: from tissue; host or cells: rat cortex
T1 sequence (P25099 1-326): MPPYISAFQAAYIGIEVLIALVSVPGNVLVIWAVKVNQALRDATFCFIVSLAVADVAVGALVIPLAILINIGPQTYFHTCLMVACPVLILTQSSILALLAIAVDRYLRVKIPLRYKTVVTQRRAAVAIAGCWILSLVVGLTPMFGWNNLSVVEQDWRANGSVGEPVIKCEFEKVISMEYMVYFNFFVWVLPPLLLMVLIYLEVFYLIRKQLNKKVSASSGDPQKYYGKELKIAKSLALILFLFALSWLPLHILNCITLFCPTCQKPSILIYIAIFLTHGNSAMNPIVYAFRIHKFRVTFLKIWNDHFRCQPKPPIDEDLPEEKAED

[2] = target: T2, rat striatal A2A receptor (Rattus norvegicus, UniProt P30543); assay: biochemical
T2 sequence (P30543 whole entry, the tested form may be a part): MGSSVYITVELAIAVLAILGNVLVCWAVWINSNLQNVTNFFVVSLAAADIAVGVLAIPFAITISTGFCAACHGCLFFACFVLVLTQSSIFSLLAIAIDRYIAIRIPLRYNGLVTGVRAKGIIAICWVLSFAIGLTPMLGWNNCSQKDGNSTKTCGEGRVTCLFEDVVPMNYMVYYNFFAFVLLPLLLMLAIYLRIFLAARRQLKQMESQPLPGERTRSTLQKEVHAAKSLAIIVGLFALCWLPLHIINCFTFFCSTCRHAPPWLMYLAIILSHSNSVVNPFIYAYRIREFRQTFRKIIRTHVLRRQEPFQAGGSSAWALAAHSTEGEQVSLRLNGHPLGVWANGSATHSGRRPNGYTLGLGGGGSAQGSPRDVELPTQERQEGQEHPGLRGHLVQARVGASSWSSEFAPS

[3] = test system: isolated perfused superior mesenteric arterial bed of the rat; details: pH of the perfusate reduced to 6.8; cited from earlier work
[4] = target: T2, rat striatal A2A receptor; details: for number of affinity states revealed: Tables 1 and 2; for number of affinity states revealed / effect of GTP on the high affinity states: lower pH; for high affinity states as proportion of the total number of binding sites: lower pH (5.5); for effect of GTP on the high affinity states: presence of GTP
[5] = test system: thermal hyperalgesia caused by chronic constriction injury of the rat sciatic nerve; assay: Chronic constriction injury model of neuropathic pain; type: in vivo; details: 0.624 mg/kg p.o., compared with carbamazepine 100 mg/kg s.c.
Description: After approximately two weeks the rats developed thermal hyperalgesia in the operated leg as judged by the difference in paw withdrawal latencies of the right and left paws.

[6] = target: T3, human A2A receptor (Homo sapiens, UniProt P29274); assay: cAMP accumulation in HEK293 cells expressing the human A2A receptor; type: cell-based
T3 construct: expressed in transfected cells; host or cells: HEK293
T3 sequence (P29274 whole entry): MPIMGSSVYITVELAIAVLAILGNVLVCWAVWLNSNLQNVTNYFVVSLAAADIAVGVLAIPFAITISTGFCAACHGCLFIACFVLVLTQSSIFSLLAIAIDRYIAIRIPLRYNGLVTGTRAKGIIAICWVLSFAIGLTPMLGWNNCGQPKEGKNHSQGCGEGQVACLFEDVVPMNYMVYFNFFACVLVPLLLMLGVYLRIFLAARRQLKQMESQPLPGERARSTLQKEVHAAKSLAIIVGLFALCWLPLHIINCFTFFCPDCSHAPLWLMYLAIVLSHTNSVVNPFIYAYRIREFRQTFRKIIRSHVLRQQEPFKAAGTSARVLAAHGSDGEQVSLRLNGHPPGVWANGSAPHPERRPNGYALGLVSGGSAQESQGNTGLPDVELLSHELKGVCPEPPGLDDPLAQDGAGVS
Description: The human A2A receptor was expressed in HEK293 cells, and the ability of agonists to stimulate cAMP accumulation assessed in the presence of rolipram to inhibit phosphodiesterase enzymes.

[7] = test system: carrageenan (CGN) induced thermal hyperalgesia; assay: Carrageenan induced thermal hyperalgesia (paw withdrawal latency); type: in vivo; details: 0.6 mg/kg, given with carrageenan; compared with indomethacin 3 mg/kg po
Protocol: Carrageenan (2%, 10 microlitres) was administered into the right hind paw. A heat source was placed close to the treated and untreated hind paws, and the difference in the paw withdrawal latencies is shown. 2-methoxyadenosine was administered at the same time as carrageenan.

[8] = Blood pressure and heart rate by implanted radiotelemetry; type: in vivo; details: 0.624 mg/kg p.o., rat
Protocol: An implantable radiotelemetry device was placed in the abdominal cavity of 6 rats per group. The pressure catheter of the device was inserted in the abdominal aorta and two electrodes tunnelised under the skin in a lead II position (left side of abdominal cavity/right shoulder). Individual rats were placed in their own cage on a radioreceptor (DSI) for data acquisition. The effect of 0.6 mg/kg 2 methoxyadenosine or vehicle (p.o.) on blood pressure was then assessed. The results are shown in FIG. 5: A: blood pressure; B: heart rate.

[9] = Plasma concentration after administration; details: rat, in vivo
[10] = 20 mg/kg po; cited from earlier work
[11] = target: adenosine A2A receptor; details: cited from earlier work
[12] = test system: carrageenan (CGN) induced inflammation; assay: Carrageenan induced inflammation (paw volume by plethysmometry); type: in vivo; details: 62.4 and 624 μg/kg i.p.; compared with indomethacin 3 mg/kg po
Protocol: Carrageenan (2%, 10 microlitres) was administered into the right hind paw, and the paw volume assessed by plethysomometry. 2-methoxyadenosine was administered at the same time as carrageenan.

[13] = test system: carageenan-induced inflammation; details: rats, 20 mg/kg po; cited from earlier work
[14] = target: T4, human A1 receptor (Homo sapiens, UniProt P30542); assay: Displacement of [3H]-DPCPX from the human A1 receptor; type: binding; details: read-out: Ki high affinity sites
T4 sequence (P30542 1-326): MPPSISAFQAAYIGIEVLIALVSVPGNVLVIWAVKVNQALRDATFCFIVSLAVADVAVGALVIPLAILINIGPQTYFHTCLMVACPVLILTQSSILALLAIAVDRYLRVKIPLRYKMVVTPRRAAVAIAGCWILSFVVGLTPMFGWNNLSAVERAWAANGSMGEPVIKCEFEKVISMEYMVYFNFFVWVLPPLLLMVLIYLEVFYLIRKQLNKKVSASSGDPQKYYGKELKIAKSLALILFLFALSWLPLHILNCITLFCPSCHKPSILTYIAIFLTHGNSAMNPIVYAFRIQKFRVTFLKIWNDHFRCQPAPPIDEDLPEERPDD
Description: Compounds that show a decrease in efficacy are likely to act as low efficacy partial agonists.

[15] = pH 6.2, read-out: Ki High affinity
[16] = pH 6.2, read-out: Ki Low affinity
[17] = pH 7.4, read-out: Ki High affinity
[18] = pH 7.4, read-out: Ki Low affinity

## Nc1nc(Cl)nc2c1ncn2[C@@H]1O[C@H](CO)[C@@H](O)[C@H]1O [2-chloroadenosine, reference compound]
[1]; [15]
  Ki: 3.7 nM
[1]; [16]
  Ki: 1660 nM
[1]; [17]
  Ki: 4.4 nM
[1]; [18]
  Ki: 1670 nM

## Nc1nc(Nc2ccccc2)nc2c1ncn2[C@@H]1O[C@H](CO)[C@@H](O)[C@H]1O [CV1808, 2-phenylamino-adenosine, reference compound]
[2]; Ki, pH5.5, one affinity state
  Ki: 35 ± 9 nM
[2]; Ki, pH 7.4, one affinity state
  Ki: 170 ± 20 nM

## Nc1ncnc2c1ncn2[C@@H]1O[C@H](CO)[C@@H](O)[C@H]1O [adenosine]
[3]
  enhancement of dilator responses: 10 fold

## CCOc1nc(N)c2ncn([C@@H]3O[C@H](CO)[C@@H](O)[C@H]3O)c2n1 [2-ethoxyadenosine]
[4]
  number of affinity states revealed: two apparent affinity states
  high affinity states as proportion of the total number of binding sites: approximately 25%
  effect of GTP on the high affinity states: abolished
[2]; Ki High affinity, pH 5.5
  Ki: 2.8 nM
[2]; Ki High affinity, pH 7.4
  Ki: 245 nM
[2]; Ki Low affinity, pH 5.5
  Ki: 1200 nM
[2]; Ki Low affinity, pH 7.4
  Ki: 6600 nM

## COc1nc(N)c2ncn([C@@H]3O[C@H](CO)[C@@H](O)[C@H]3O)c2n1 [2-methoxyadenosine]
[5]
  thermal hyperalgesia, chronic constriction injury: inhibits
[6]; cAMP accumulation in the presence of rolipram
  efficacy at pH7.0 compared to pH7.4: Increased
[6]; pH7.0 compared to pH7.4, FIG. 3
  increase in efficacy at the adenosine A2A receptor: approximately 100 fold
[7]
  carrageenan induced thermal hyperalgesia: inhibits
[8]
  effect on blood pressure: no Significant Effect
  effect on heart rate: no Significant Effect
[9]
  plasma concentration with profound anti-hyperalgesic and anti-inflammatory activity: ≤ 0.2 µM
[10]
  reduction in heart rate: 25%
  reduction in mean blood pressure: 41%
[4]
  number of affinity states revealed: two apparent affinity states
  high affinity states as proportion of the total number of binding sites: approximately 25%
  effect of GTP on the high affinity states: abolished
[4]; pH 7.4
  Ki High affinity: High affinity not detectable
[4]; pH from 7.4 to 7.0 to 6.8, FIG. 2
  change of affinity as the pH is reduced: increases as the pH is reduced
[2]; Ki High affinity, pH 5.5
  Ki: 12.1 nM
[2]; Ki Low affinity, pH 5.5
  Ki: 1200 nM
[2]; Ki Low affinity, pH 7.4
  Ki: 2500 nM
[11]; Daly et al. 1993, read-out: EC50 at the adenosine A2A receptor
  EC50: 3000 nM
[11]; measured at pH7.4
  EC50 at adenosine receptors: 900 ng/mL (≈ 3.03 µM)
[11]; measured at pH7.4, read-out: EC50 at adenosine receptors
  EC50: 3000 nM
[12]
  carrageenan induced inflammation (paw volume): Inhibits
[13]
  inhibition of carageenan-induced inflammation: 25%

## COc1nc(N)c2ncn([C@@H]3O[C@H](CO)C[C@H]3O)c2n1 [3′-deoxy-2-methoxyadenosine]
[14]; pH 6.2
  Ki: 405 ± 114 nM
[14]; pH 7.4
  Ki: 158 ± 85 nM

## Nc1nc(Cl)nc2c1ncn2[C@@H]1O[C@H](CO)C[C@H]1O [3′-deoxy-2-chloroadenosine]
[1]; both pH values (7.4 and 6.2)
  effect of GppNHp on the high affinity state: abolished
[1]; [15]
  Ki: 17 nM
[1]; [16]
  Ki: 13400 nM
[1]; [17]
  Ki: 227 nM
[1]; [18]
  Ki: 11500 nM
